Laboratory results from PubChem BioAssay AID1919000 (Molecular Pharmacology Branch, DTP, NCI, 2023).

System: 653999-131-R-J2-PDC complex spheroids, growth % test/control
Assay: Anticancer human tumor 653999-131-R-J2-PDC patient-derived lung adenocarcinoma cell line growth inhibition [AhR]
Details: for IC50: curve of first compound; for viability, T/C: stronger effect = lower value
Outline: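 Spheroids combined tumor cells with HUVEC endothelial cells and human MSCs as stroma. AhR antagonists were paired with standard or investigational drugs, each dosed in half-log steps down from near clinical Cmax, or from 10 microM where Cmax was unknown.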

[1] = second compound 0.1 µM, first compound 0.0316 µM
[2] = second compound 0.1 µM, first compound 0.1 µM
[3] = second compound 0.1 µM, first compound 0.316 µM
[4] = second compound 0.1 µM, first compound 1 µM
[5] = second compound 0.1 µM, first compound 3.16 µM
[6] = second compound 0.1 µM, first compound 10 µM
[7] = second compound 0.316 µM, first compound 0.0316 µM
[8] = second compound 0.316 µM, first compound 0.1 µM
[9] = second compound 0.316 µM, first compound 0.316 µM
[10] = second compound 0.316 µM, first compound 1 µM
[11] = second compound 0.316 µM, first compound 3.16 µM
[12] = second compound 0.316 µM, first compound 10 µM
[13] = second compound 1 µM, first compound 0.0316 µM
[14] = second compound 1 µM, first compound 0.1 µM
[15] = second compound 1 µM, first compound 0.316 µM
[16] = second compound 1 µM, first compound 1 µM
[17] = second compound 1 µM, first compound 3.16 µM
[18] = second compound 1 µM, first compound 10 µM
[19] = second compound 3.16 µM, first compound 0.0316 µM
[20] = second compound 3.16 µM, first compound 0.1 µM
[21] = second compound 3.16 µM, first compound 0.316 µM
[22] = second compound 3.16 µM, first compound 1 µM
[23] = second compound 3.16 µM, first compound 3.16 µM
[24] = second compound 3.16 µM, first compound 10 µM
[25] = second compound 10 µM, first compound 0.0316 µM
[26] = second compound 10 µM, first compound 0.1 µM
[27] = second compound 10 µM, first compound 0.316 µM
[28] = second compound 10 µM, first compound 1 µM
[29] = second compound 10 µM, first compound 3.16 µM
[30] = second compound 10 µM, first compound 10 µM
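Note: spheroids exposed to agents for seven days.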
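Throughout, for viability, T/C: 100% = DMSO vehicle control viability.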

SMILES	IC50 (second compound 0.1 µM) [µM]	IC50 (second compound 0.316 µM) [µM]	IC50 (second compound 1 µM) [µM]	IC50 (second compound 3.16 µM) [µM]	IC50 (second compound 10 µM) [µM]	viability, T/C [1] [%]	viability, T/C [2] [%]	viability, T/C [3] [%]	viability, T/C [4] [%]	viability, T/C [5] [%]	viability, T/C [6] [%]	viability, T/C [7] [%]	viability, T/C [8] [%]	viability, T/C [9] [%]	viability, T/C [13] [%]	viability, T/C [14] [%]	viability, T/C [19] [%]	viability, T/C [20] [%]	viability, T/C [25] [%]	viability, T/C [26] [%]	further results
COc1cc(Nc2ncc3c(n2)-c2ccc(Cl)cc2C(c2c(F)cccc2OC)=NC3)ccc1C(=O)O + CC(CO)NC(=O)c1cc(-c2ccc(Cl)cc2)nn(-c2cnn(C)c2)c1=O	> 10	> 10	> 10	> 10	> 10	95	80.9	77.6	76.8	66	64	92.6	73.5	74.8	98.2	76.1	94.2	83	92.8	81	viability, T/C [10]: 62.4%; viability, T/C [11]: 70.8%; viability, T/C [12]: 65.2%; viability, T/C [15]: 83.9%; viability, T/C [16]: 70.8%; viability, T/C [17]: 77.8%; viability, T/C [18]: 68.5%; viability, T/C [21]: 79.1%; viability, T/C [22]: 74.7%; viability, T/C [23]: 77.5%; viability, T/C [24]: 77.4%; viability, T/C [27]: 78.4%; viability, T/C [28]: 74%; viability, T/C [29]: 67.9%; viability, T/C [30]: 80.4%
Cn1ncnc1C1c2n[nH]c(=O)c3cc(F)cc(c23)NC1c1ccc(F)cc1 (stereo not given) + CC(CO)NC(=O)c1cc(-c2ccc(Cl)cc2)nn(-c2cnn(C)c2)c1=O	> 0.1	> 0.1	> 0.1	> 0.1	> 0.1	102	91.9	–	–	–	–	87.2	102	–	95.5	96	97.2	100	94.8	93.2	viability, T/C (second compound 0.1 µM, first compound 0.000316 µM): 104%; viability, T/C (second compound 0.1 µM, first compound 0.001 µM): 99.5%; viability, T/C (second compound 0.1 µM, first compound 0.00316 µM): 109%; viability, T/C (second compound 0.1 µM, first compound 0.01 µM): 101%; viability, T/C (second compound 0.316 µM, first compound 0.000316 µM): 111%; viability, T/C (second compound 0.316 µM, first compound 0.001 µM): 98.8%; viability, T/C (second compound 0.316 µM, first compound 0.00316 µM): 97.1%; viability, T/C (second compound 0.316 µM, first compound 0.01 µM): 96.3%; viability, T/C (second compound 1 µM, first compound 0.000316 µM): 105%; viability, T/C (second compound 1 µM, first compound 0.001 µM): 103%; viability, T/C (second compound 1 µM, first compound 0.00316 µM): 102%; viability, T/C (second compound 1 µM, first compound 0.01 µM): 106%; viability, T/C (second compound 3.16 µM, first compound 0.000316 µM): 99.2%; viability, T/C (second compound 3.16 µM, first compound 0.001 µM): 107%; viability, T/C (second compound 3.16 µM, first compound 0.00316 µM): 114%; viability, T/C (second compound 3.16 µM, first compound 0.01 µM): 102%; viability, T/C (second compound 10 µM, first compound 0.000316 µM): 106%; viability, T/C (second compound 10 µM, first compound 0.001 µM): 105%; viability, T/C (second compound 10 µM, first compound 0.00316 µM): 103%; viability, T/C (second compound 10 µM, first compound 0.01 µM): 97.1%
NS(=O)(=O)OCC1CC(n2ccc3c(NC4CCc5ccccc54)ncnc32)CC1O (stereo not given) + CC(CO)NC(=O)c1cc(-c2ccc(Cl)cc2)nn(-c2cnn(C)c2)c1=O	> 10	> 10	> 10	> 10	> 10	108	99.8	109	98.9	63.4	51	108	98.7	101	101	111	101	102	97.9	96.9	viability, T/C [10]: 80.4%; viability, T/C [11]: 53.1%; viability, T/C [12]: 54.5%; viability, T/C [15]: 114%; viability, T/C [16]: 53.8%; viability, T/C [17]: 53.4%; viability, T/C [18]: 52.3%; viability, T/C [21]: 99.9%; viability, T/C [22]: 54.5%; viability, T/C [23]: 52%; viability, T/C [24]: 58.4%; viability, T/C [27]: 93.5%; viability, T/C [28]: 54.1%; viability, T/C [29]: 51%; viability, T/C [30]: 56.9%
O=C(C=Cc1cccc(S(=O)(=O)Nc2ccccc2)c1)NO + CC(CO)NC(=O)c1cc(-c2ccc(Cl)cc2)nn(-c2cnn(C)c2)c1=O	3.73	3.66	4.13	3.52	3.64	102	102	100	91.8	57.3	6.62	109	117	95.9	108	104	107	114	107	111	viability, T/C [10]: 96.3%; viability, T/C [11]: 55%; viability, T/C [12]: 7.7%; viability, T/C [15]: 114%; viability, T/C [16]: 98.5%; viability, T/C [17]: 63.4%; viability, T/C [18]: 6.59%; viability, T/C [21]: 105%; viability, T/C [22]: 90.2%; viability, T/C [23]: 54.3%; viability, T/C [24]: 10.5%; viability, T/C [27]: 105%; viability, T/C [28]: 100%; viability, T/C [29]: 56.2%; viability, T/C [30]: 4.99%
